The record followed here is US20110183978A1, “Phenylpyri(mi)dinylazoles” (Bayer CropScience AG, priority 2009, published 2011).

One assay deals with Aspergillus parasiticus. Kind of assay: microbe, parasite or virus in culture. The class given is cell-based. The following applies: 168 h.
In another assay the test system is Rhizoctonia solani. Kind of assay: Example W: in vivo test on Rhizoctonia solani (sheath blight in rice/protective). The following applies: 96 h, rice, protective, 250 ppm active substance, assessed 4 days after inoculation, read-out: % Activity level. The procedure, abridged: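 Young rice plants sprayed protectively with compound in acetone/alkylaryl polyglycol ether emulsion diluted in water at stated dosage. Inoculated with R. solani hyphae one day later; disease assessed 4 days post-inoculation.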

A further assay deals with Leptosphaeria nodorum. Kind of assay: Example Q: in vivo test on Leptosphaeria nodorum (glume blotch in wheat/protective). The following applies: Parastagonospora nodorum, 192 h, wheat, protective, assessment 8 days after inoculation, read-out: % Wirkungsgrad. The procedure, abridged:
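Protective test: young wheat plants sprayed with compound formulated in N,N-dimethylacetamide plus alkylaryl polyglycol ether emulsifier, diluted in water to the stated dose. After drying, plants inoculated with L. nodorum spore suspension; disease assessed 8 days post-inoculation.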

The next assay deals with Fusarium proliferatum. In words: Example I: production of fumonisin FB1 by Fusarium proliferatum (microtitre plates). The class given is cell-based. The following applies: 120 h.
For the next assay, the system named is Alternaria solani. Kind of assay: Example M: in vivo test on Alternaria solani (leaf blotch disease/tomato/protective). The following applies: 168 h, tomato, protective, 500 ppm active substance, assessed 7 days after inoculation, read-out: % Wirkungsgrad (activity level). The procedure, abridged:
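Protective test: young tomato plants sprayed with active substance (in DMF with alkylaryl polyglycol ether emulsifier, diluted in water) at the stated dosage, then inoculated with Alternaria solani. Disease assessed 7 days after inoculation.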

A further assay deals with Phakopsora pachyrhizi. In words: Example Z: in vivo test on Phakopsora pachyrhizi (soya bean rust/protective). The following applies: soya bean rust, protective, 250 ppm active substance, assessed 11 days after inoculation.
For another assay, the system named is Puccinia recondita. In words: Example F: in vivo test on Puccinia recondita (wheat brown rust). The following applies: 240 h, wheat plants sprayed 24 hours before inoculation, scored after 10 days, read-out: % Wirkungsgrad. Here is the method: In Vivo Test on Puccinia Recondita (Wheat Brown Rust) An aqueous suspension of the active substance was prepared by homogenization of a mixture of acetone/Tween/dimethyl sulphoxide and subsequent dilution with water to the desired concentration. Wheat plants (variety: Scipion) are sown in cultivation dishes on a peat-pozzolanic earth substrate (50/50) at 12° C. and sprayed at the first-leaf stage (10 cm size) with the aqueous suspension described above. As a control, plants are sprayed with an aqueous solution with no active substance. After 24 hours the plants are inoculated by spraying with an aqueous suspension of Puccinia recondita spores (100,000 spores per ml). The spores are derived from a 10 day-old infected wheat crop and are suspended in water with 2.5 ml/l Tween. […] After 10 days they are scored in comparison with the control plants.

In a further assay the test system is Alternaria brassicae. In words: Example C: in vivo test on Alternaria brassicae (leaf spot disease on radishes). The following applies: 500 ppm; radish plants sprayed 24 hours before inoculation; scored after 6-7 days. Here is the method: In Vivo Test on Alternaria Brassicae (Leaf Spot Disease on Radishes) An aqueous suspension of the active substance was prepared by homogenization of a mixture of acetone/Tween/dimethyl sulphoxide and subsequent dilution with water to the desired concentration. Radish plants (variety: Pernot) are sown in cultivation dishes on a peat-pozzolanic earth substrate (50/50) at 18-20° C. and sprayed at the cotyledon stage with the aqueous suspension described above. As a control, plants are sprayed with an aqueous solution with no active substance. After 24 hours, the plants are inoculated by spraying with an aqueous suspension of Alternaria brassicae spores (40,000 spores per ml). The spores are derived from a 12 to 13 day-old culture. The inoculated radish plants are incubated for 6-7 days at ca. 18° C. in a humid atmosphere. After 6-7 days they are scored in comparison with the control plants.

In another assay the test system is Peronospora parasitica. Kind of assay: Example A: in vivo test on Peronospora parasitica (downy mildew on white cabbage). The following applies: Hyaloperonospora parasitica, 120 h, cabbage plants sprayed 24 hours before inoculation, scored after 5 days, read-out: % Wirkungsgrad. The procedure, abridged: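 Cabbage plants (Eminence) at cotyledon stage sprayed with aqueous compound suspension (acetone/Tween/DMSO, diluted with water), then inoculated 24 h later with P. parasitica spores at 50,000 spores/ml. After 5 days in moist atmosphere at ca. 20 °C, disease scored against untreated sprayed controls.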

The next assay deals with Sphaerotheca fuliginea. Kind of assay: Example D: in vivo test on Sphaerotheca fuliginea (powdery mildew on cucumber). The following applies: Podosphaera fuliginea, 288 h, cucumber plants sprayed 24 hours before inoculation, scored after 12 days, read-out: % Wirkungsgrad. The procedure, abridged:
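Cucumber plants at cotyledon stage Z10 were sprayed with the compound suspended in acetone/Tween/DMSO diluted with water. After 24 hours they were inoculated with Sphaerotheca fuliginea spores (100,000/ml) and incubated at ca. 20/25° C. and 60/70% RH. Disease was scored after 12 days against untreated sprayed controls.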

Setting [1] is: 50 μM, 7 days at 20° C., read-out: Inhibition der Aflatoxin produktion bei 50 μM.
The mark [2] stands for this setting: read-out: % Inhibition des Pilzwachstums bei 50 μM.
Where [3] appears, read: Fusarium proliferatum growth, OD 620, 5 days, read-out: % Inhibition des Pilzwachstums bei 50 μM.
Where [4] appears, read: Fusarium proliferatum, 5 days at 20° C., HPLC-MS/MS, read-out: % Inhibition der FB1 produktion bei 50 μM.

Where two headings read alike, the source gives them in different places.

With `CC(C)C(=O)Nc1cc(-c2cn(C(C)C)nc2-c2ccc(F)cc2)ccn1` [Compound 84], the inhibition at 50 µM came out at 100% with Aspergillus parasiticus (setting [1]), 98% with Aspergillus parasiticus (setting [2]), 88% with Fusarium proliferatum (setting [3]) and 100% in the assay on Fusarium proliferatum (setting [4]). Also, the pest or weed control at 250 ppm with Rhizoctonia solani was 100%. For the same molecule, in the assay with Leptosphaeria nodorum, the pest or weed control at 1000 ppm amounted to 100%. In addition, the pest or weed control at 500 ppm was 95% with Alternaria solani, 78% in the assay with Puccinia recondita, 100% with Peronospora parasitica and 100% with Sphaerotheca fuliginea. The “% Activity level” value in the assay on Phakopsora pachyrhizi is listed as 98%; in the assay with Alternaria brassicae, 75%.

In the case of `CC(C)Cn1cc(-c2ccncc2)c(-c2ccc(F)cc2)n1` [Compound 1], the pest or weed control at 250 ppm in the assay with Rhizoctonia solani is 100%. For the same molecule, the pest or weed control at 1000 ppm in the assay on Leptosphaeria nodorum came out at 100%. Besides, the “% Activity level” value came to 91% with Phakopsora pachyrhizi and 94% with Alternaria brassicae. Further, the pest or weed control at 500 ppm was determined as 89% in the assay with Puccinia recondita, 100% in the assay on Peronospora parasitica and 100% in the assay with Sphaerotheca fuliginea.

With `CC(C)n1cc(-c2ccnc(NC(=O)C3CC3)c2)c(-c2ccc(F)cc2)n1` [Compound 86], the inhibition at 50 µM in the assay with Aspergillus parasiticus (setting [1]) was 100%; with Aspergillus parasiticus (setting [2]) it was 97%; in the assay on Fusarium proliferatum (setting [3]) it was 96%; with Fusarium proliferatum (setting [4]), 100%. Further, the pest or weed control at 250 ppm with Rhizoctonia solani worked out at 100%. Besides, the pest or weed control at 1000 ppm in the assay with Leptosphaeria nodorum worked out at 100%. The “% Activity level” value in the assay with Alternaria brassicae is recorded as 75%. For the same molecule, the pest or weed control at 500 ppm in the assay with Peronospora parasitica and in the assay with Sphaerotheca fuliginea was 100% each time.

For `CCC(=O)Nc1cc(-c2cn(C(C)C)nc2-c2ccc(F)cc2)ccn1` [Compound 85], the inhibition at 50 µM with Aspergillus parasiticus (setting [1]) amounted to 100%; in the assay with Aspergillus parasiticus (setting [2]), 98%; in the assay with Fusarium proliferatum (setting [3]) it was 95%; with Fusarium proliferatum (setting [4]) it was 100%. In addition, in the assay on Rhizoctonia solani, the pest or weed control at 250 ppm is 97%. In the assay on Leptosphaeria nodorum, the pest or weed control at 1000 ppm turned out to be 100%. Further, the pest or weed control at 500 ppm in the assay on Alternaria solani, with Peronospora parasitica and with Sphaerotheca fuliginea was 100% in each case.

A word on the inhibition: it is the change of the read-out against control, counted positive when it falls.
